Converted amounts (≈) assume the structure as drawn. The source made the active and inactive calls. The rule behind the calls is not given here.
Assays:
Bacillus subtilis [1] = test: Antibacterial activity against Bacillus subtilis ATCC 6633 at 400 ug after 18 hr by disk diffusion method; format: functional; conditions: for zone of inhibition at 400 µg/disc: ATCC 6633, 18 h, read-out: DIZ
[2] = Cytotoxicity against Homo sapiens (human) MT4 cells after 96 hr by MTT assay; format: cell-based
Pseudomonas aeruginosa [3] = test: Antibacterial activity against Pseudomonas aeruginosa ATCC 15442 at 400 ug after 18 hr by disk diffusion method; format: functional; conditions: for zone of inhibition at 400 µg/disc: ATCC 15442, 18 h, read-out: DIZ
Escherichia coli [4] = test: Antibacterial activity against Escherichia coli ATCC 25922 at 400 ug after 18 hr by disk diffusion method; format: functional
Escherichia coli [5] = test: Antibacterial activity against Escherichia coli ATCC 10538 at 400 ug after 18 hr by disk diffusion method; format: functional
Staphylococcus aureus [6] = test: Antibacterial activity against Staphylococcus aureus ATCC 25923 at 400 ug after 18 hr by disk diffusion method; format: functional; conditions: for zone of inhibition at 400 µg/disc: ATCC 25923, 18 h, read-out: DIZ
Proteus vulgaris [7] = test: Antibacterial activity against Proteus vulgaris NCTC 4635 at 400 ug after 18 hr by disk diffusion method; format: functional; conditions: for zone of inhibition at 400 µg/disc: NCTC 4635, 18 h, read-out: DIZ
Candida albicans [8] = test: Antifungal activity against Candida albicans ATCC 90028 at 400 ug after 24 to 48 hr by disk diffusion method; format: functional; conditions: for zone of inhibition at 400 µg/disc: read-out: DIZ
Candida parapsilosis [9] = test: Antifungal activity against Candida parapsilosis ATCC 22019 at 400 ug after 24 to 48 hr by disk diffusion method; format: functional; conditions: for zone of inhibition at 400 µg/disc: Lodderomyces parapsilosis, read-out: DIZ
Escherichia coli [10] = test: Antibacterial activity against Escherichia coli NCTC 8196 at 400 ug after 18 hr by disk diffusion method; format: functional; conditions: for zone of inhibition at 400 µg/disc: NCTC 8196, 18 h, read-out: DIZ
[11] = test system: Human immunodeficiency virus 1; test: Antiviral activity against Human immunodeficiency virus 1 infected human MT4 cells assessed as inhibition of virus-induced cytopathogenicity after 4 days by MTT assay; format: functional, organism-based; conditions: Human immunodeficiency virus 1, MT4, 96 h
Pseudomonas aeruginosa [12] = test: Antibacterial activity against Pseudomonas aeruginosa NCTC 6749 at 400 ug after 18 hr by disk diffusion method; format: functional, organism-based
Staphylococcus aureus [13] = test: Antibacterial activity against Staphylococcus aureus ATCC 6538P at 400 ug after 18 hr by disk diffusion method; format: functional; conditions: for zone of inhibition at 400 µg/disc: read-out: DIZ
[14] = test system: Bordetella bronchiseptica; test: Antibacterial activity against Bordetella bronchiseptica ATCC 461 at 400 ug after 18 hr by disk diffusion method; format: functional; conditions: for zone of inhibition at 400 µg/disc: ATCC 461, 18 h, read-out: DIZ
Enterococcus hirae [15] = test: Antibacterial activity against Enterococcus hirae ATCC 10541 at 400 ug after 18 hr by disk diffusion method; format: functional; conditions: for zone of inhibition at 400 µg/disc: ATCC 10541, 18 h, read-out: DIZ
Candida albicans [16] = test: Antifungal activity against Candida albicans ATCC 10231 at 400 ug after 24 to 48 hr by disk diffusion method; format: functional; conditions: for zone of inhibition at 400 µg/disc: read-out: DIZ
Staphylococcus aureus [17] = test: Antibacterial activity against Staphylococcus aureus NCTC 4163 at 400 ug after 18 hr by disk diffusion method; format: functional; conditions: for zone of inhibition at 400 µg/disc: NCTC 4163, 18 h, read-out: DIZ
Staphylococcus aureus [18] = test: Antibacterial activity against Staphylococcus aureus ATCC 29213 at 400 ug after 18 hr by disk diffusion method; format: functional; conditions: for zone of inhibition at 400 µg/disc: ATCC 29213, 18 h, read-out: DIZ
Escherichia coli [19] = test: Antibacterial activity against Escherichia coli NCTC 8196 after 18 hr; format: functional, organism-based
Staphylococcus aureus [20] = test: Antibacterial activity against Staphylococcus aureus ATCC 25923 after 18 hr; format: functional; conditions: ATCC 25923, 18 h
Escherichia coli [21] = test: Antibacterial activity against Escherichia coli ATCC 25922 after 18 hr; format: functional, organism-based
Candida parapsilosis [22] = test: Antifungal activity against Candida parapsilosis ATCC 22019 after 18 hr; format: functional; conditions: Lodderomyces parapsilosis, ATCC 22019, 18 h
Escherichia coli [23] = test: Antibacterial activity against Escherichia coli ATCC 10538 after 18 hr; format: functional, organism-based
Proteus vulgaris [24] = test: Antibacterial activity against Proteus vulgaris NCTC 4635 after 18 hr; format: functional; conditions: NCTC 4635, 18 h
Staphylococcus aureus [25] = test: Antibacterial activity against Staphylococcus aureus NCTC 4163 after 18 hr; format: functional; conditions: NCTC 4163, 18 h
Candida albicans [26] = test: Antifungal activity against Candida albicans ATCC 10231 after 18 hr; format: functional; conditions: ATCC 10231, 18 h
Enterococcus hirae [27] = test: Antibacterial activity against Enterococcus hirae ATCC 10541 after 18 hr; format: functional; conditions: ATCC 10541, 18 h
Staphylococcus aureus [28] = test: Antibacterial activity against Staphylococcus aureus ATCC 29213 after 18 hr; format: functional; conditions: ATCC 29213, 18 h
Pseudomonas aeruginosa [29] = test: Antibacterial activity against Pseudomonas aeruginosa NCTC 6749 after 18 hr; format: functional, organism-based
Staphylococcus aureus [30] = test: Antibacterial activity against Staphylococcus aureus ATCC 6538P after 18 hr; format: functional
Bacillus subtilis [31] = test: Antibacterial activity against Bacillus subtilis ATCC 6633 after 18 hr; format: functional; conditions: ATCC 6633, 18 h
[32] = test system: Bordetella bronchiseptica; test: Antibacterial activity against Bordetella bronchiseptica ATCC 461 after 18 hr; format: functional, organism-based
Pseudomonas aeruginosa [33] = test: Antibacterial activity against Pseudomonas aeruginosa ATCC 15442 after 18 hr; format: functional; conditions: ATCC 15442, 18 h
Candida albicans [34] = test: Antifungal activity against Candida albicans ATCC 90028 after 18 hr; format: functional; conditions: ATCC 90028, 18 h

| Compound | diameter of the inhibition zone (DIZ) (Escherichia coli [4]) | diameter of the inhibition zone (DIZ) (Escherichia coli [5]) | diameter of the inhibition zone (DIZ) (Pseudomonas aeruginosa [12]) | zone of inhibition at 400 µg/disc (Bacillus subtilis [1]) [mm] | MIC (Escherichia coli [19]) | zone of inhibition at 400 µg/disc (Pseudomonas aeruginosa [3]) [mm] | MIC (Staphylococcus aureus [20]) [µg/mL] | MIC (Escherichia coli [21]) | zone of inhibition at 400 µg/disc (Staphylococcus aureus [6]) [mm] | zone of inhibition at 400 µg/disc (Proteus vulgaris [7]) [mm] | zone of inhibition at 400 µg/disc (Candida albicans [8]) [mm] | MIC (Candida parapsilosis [22]) [µg/mL] | zone of inhibition at 400 µg/disc (Candida parapsilosis [9]) [mm] | MIC (Escherichia coli [23]) | MIC (Proteus vulgaris [24]) [µg/mL] | MIC (Staphylococcus aureus [25]) [µg/mL] | MIC (Candida albicans [26]) [µg/mL] | MIC (Enterococcus hirae [27]) [µg/mL] | MIC (Staphylococcus aureus [28]) [µg/mL] | zone of inhibition at 400 µg/disc (Staphylococcus aureus [13]) [mm] | other results |
| --- | --- | --- | --- | --- | --- | --- | --- | --- | --- | --- | --- | --- | --- | --- | --- | --- | --- | --- | --- | --- | --- |
| CC1(C)Cc2cccc(O)c2O1 | inactive | inactive | inactive | – | – | – | – | – | – | – | – | – | – | – | – | – | – | – | – | – | diameter of the inhibition zone (DIZ) (Bacillus subtilis [1]): inactive; CC50 at 96 h [2]: 100 µM; diameter of the inhibition zone (DIZ) (Pseudomonas aeruginosa [3]): inactive; diameter of the inhibition zone (DIZ) (Staphylococcus aureus [6]): inactive; diameter of the inhibition zone (DIZ) (Proteus vulgaris [7]): inactive; diameter of the inhibition zone (DIZ) (Candida albicans [8]): inactive; diameter of the inhibition zone (DIZ) (Candida parapsilosis [9]): inactive; diameter of the inhibition zone (DIZ) (Escherichia coli [10]): inactive; EC50 [11]: > 100 µM; diameter of the inhibition zone (DIZ) (Staphylococcus aureus [13]): inactive; diameter of the inhibition zone (DIZ) [14]: inactive; diameter of the inhibition zone (DIZ) (Enterococcus hirae [15]): inactive; diameter of the inhibition zone (DIZ) (Candida albicans [16]): inactive; diameter of the inhibition zone (DIZ) (Staphylococcus aureus [17]): inactive; diameter of the inhibition zone (DIZ) (Staphylococcus aureus [18]): inactive |
| CC(C)NCC(O)COc1c(Br)c(Br)c(Br)c2c1OC(C)(C)C2 (stereo unspecified) | inactive | inactive | inactive | 23 | inactive | 22 | 25 (≈ 48.4 µM) | inactive | 18 | 24 | 15 | 100 (≈ 194 µM) | 17 | inactive | 12.5 (≈ 24.2 µM) | 50 (≈ 96.9 µM) | 200 (≈ 388 µM) | 25 (≈ 48.4 µM) | 25 (≈ 48.4 µM) | 21 | zone of inhibition at 400 µg/disc (Escherichia coli [10]): 11 mm; zone of inhibition at 400 µg/disc [14]: 11 mm; zone of inhibition at 400 µg/disc (Enterococcus hirae [15]): 17 mm; MIC (Pseudomonas aeruginosa [29]): inactive; MIC (Staphylococcus aureus [30]): 25 µg/mL (≈ 48.4 µM); MIC (Bacillus subtilis [31]): 12.5 µg/mL (≈ 24.2 µM); MIC [32]: inactive; MIC (Pseudomonas aeruginosa [33]): 12.5 µg/mL (≈ 24.2 µM); MIC (Candida albicans [34]): 200 µg/mL (≈ 388 µM); zone of inhibition at 400 µg/disc (Candida albicans [16]): 16 mm; zone of inhibition at 400 µg/disc (Staphylococcus aureus [17]): 20 mm; zone of inhibition at 400 µg/disc (Staphylococcus aureus [18]): 20 mm |
| CN(C)CC(O)COc1c(Br)c(Br)c(Br)c2c1OC(C)(C)C2 (stereo unspecified) | – | – | inactive | 24 | inactive | 23 | 100 (≈ 199 µM) | inactive | 18 | 23 | 15 | 100 (≈ 199 µM) | 20 | inactive | 25 (≈ 49.8 µM) | 50 (≈ 99.6 µM) | 200 (≈ 398 µM) | 50 (≈ 99.6 µM) | 100 (≈ 199 µM) | 19 | zone of inhibition at 400 µg/disc (Escherichia coli [4]; ATCC 25922, 18 h, read-out: DIZ): 13 mm; zone of inhibition at 400 µg/disc (Escherichia coli [5]; ATCC 10538, 18 h, read-out: DIZ): 13 mm; zone of inhibition at 400 µg/disc (Escherichia coli [10]): 15 mm; zone of inhibition at 400 µg/disc [14]: 13 mm; zone of inhibition at 400 µg/disc (Enterococcus hirae [15]): 19 mm; MIC (Pseudomonas aeruginosa [29]): inactive; MIC (Staphylococcus aureus [30]): 50 µg/mL (≈ 99.6 µM); MIC (Bacillus subtilis [31]): 12.5 µg/mL (≈ 24.9 µM); MIC [32]: inactive; MIC (Pseudomonas aeruginosa [33]): 25 µg/mL (≈ 49.8 µM); MIC (Candida albicans [34]): 200 µg/mL (≈ 398 µM); zone of inhibition at 400 µg/disc (Candida albicans [16]): 17 mm; zone of inhibition at 400 µg/disc (Staphylococcus aureus [17]): 18 mm; zone of inhibition at 400 µg/disc (Staphylococcus aureus [18]): 19 mm |
| CC1(C)Cc2c(Br)c(Br)c(Br)c(O)c2O1 | inactive | inactive | inactive | 21 | inactive | 22 | 25 (≈ 62.4 µM) | inactive | 18 | 15 | 14 | 200 (≈ 499 µM) | 13 | inactive | 12.5 (≈ 31.2 µM) | 25 (≈ 62.4 µM) | 200 (≈ 499 µM) | 50 (≈ 125 µM) | 25 (≈ 62.4 µM) | 19 | CC50 at 96 h [2]: 60 µM; diameter of the inhibition zone (DIZ) (Escherichia coli [10]): inactive; EC50 [11]: > 60 µM; diameter of the inhibition zone (DIZ) [14]: inactive; zone of inhibition at 400 µg/disc (Enterococcus hirae [15]): 16 mm; MIC (Pseudomonas aeruginosa [29]): inactive; MIC (Staphylococcus aureus [30]): 25 µg/mL (≈ 62.4 µM); MIC (Bacillus subtilis [31]): 12.5 µg/mL (≈ 31.2 µM); MIC [32]: inactive; MIC (Pseudomonas aeruginosa [33]): 12.5 µg/mL (≈ 31.2 µM); MIC (Candida albicans [34]): 200 µg/mL (≈ 499 µM); zone of inhibition at 400 µg/disc (Candida albicans [16]): 13 mm; zone of inhibition at 400 µg/disc (Staphylococcus aureus [17]): 17 mm; zone of inhibition at 400 µg/disc (Staphylococcus aureus [18]): 18 mm |

Source: ChEMBL document CHEMBL3045826, “Synthesis of new derivatives of 2,2-dimethyl-2,3-dihydro-7-benzo[b]furanol with potential antimicrobial activity” (Med Chem Res, 2009)
